The results in this text go back to the OligoGym collection.

Values joined by “and” are separate entries in the source; they are usually repeats but may differ in a detail not shown here. Equal values may be shown once. After the bases stand the sugars from the 5' end (letter, count) and the backbone: PS all phosphorothioate, else s phosphorothioate and o phosphodiester by linkage. Methylation of C is not given here. e = 2'-O-(2-methoxyethyl) (MOE); k = constrained ethyl (cEt); d = 2'-deoxy (DNA)

In the data set the target is MALAT1. The following applies: ASO, A431, 0.005 µM.
CTTCTGATAACGAAGA (sugars k3 d10 k3, PS): the target mRNA inhibition is -5%.

As to GAACTAGTGGTTCCCA (sugars k3 d10 k3, PS), the target mRNA inhibition is 46%. Take AATTGTAGTTAATGTC (sugars k3 d10 k3, PS): the target mRNA inhibition came to 36%. To AACTCCCCCATTATAT (sugars k3 d10 k3, PS) belongs -1%; to ACCTTTTACTCTGATC (sugars k3 d10 k3, PS), 34%; to CTTAAAGCACTTCTTG (sugars k3 d10 k3, PS), -34%. With AATACTCTTCCAAGGA (sugars k3 d10 k3, PS) the figure was 15%. With AATTTATAGACCCCTG (sugars k3 d10 k3, PS) the figure was 4%; with ACTTATCTGCGGTTTC (sugars k3 d10 k3, PS), 71% and 53%. Turning to ACTTCCCCTTCTAGCT (sugars k3 d10 k3, PS), the target mRNA inhibition is 36%. As to CCACAGGAACAAGTCC (sugars k3 d10 k3, PS), the target mRNA inhibition was -5%. With GCCTCCTCCGTGTGGT (sugars k3 d10 k3, PS), the target mRNA inhibition was -1%. In the case of TTCCGTTACGAAAGTC (sugars k3 d10 k3, PS), the target mRNA inhibition was determined as 33%. With GCTGTCAATTAATGCT (sugars k3 d10 k3, PS) the figure was 24%; with ATACTATTGTCCCATA (sugars k3 d10 k3, PS), 31%; with AAGTCAAGCTCCTGAC (sugars k3 d10 k3, PS), 4%.

As for AAAAACTTATCTGCGG (sugars k3 d10 k3, PS), the target mRNA inhibition worked out at 49%. As to CAAATCCTGATCTGGT (sugars k3 d10 k3, PS), the target mRNA inhibition was 24% and 21%. With ATAGTACTATAGCATC (sugars k3 d10 k3, PS) the figure was 30%. Regarding CAGTACGAAACTCCCC (sugars k3 d10 k3, PS), the target mRNA inhibition is 30%. With TTACAAAACGAATTCA (sugars k3 d10 k3, PS) the figure was 10%; with GAAGCCCCTGCGCTGG (sugars k3 d10 k3, PS), 23%. TCTTACTGGGTCTGGC (sugars k3 d10 k3, PS): the target mRNA inhibition stood at 45%.

Take AACTGGGAATACTCTT (sugars k3 d10 k3, PS): the target mRNA inhibition turned out to be 22%. With AGACCAACTAAGCGAA (sugars k3 d10 k3, PS) the figure was 38%; with CTCACAAAACCCCCGG (sugars k3 d10 k3, PS), 18%; with TGGCGATGTGGCAGAG (sugars k3 d10 k3, PS), 35%. To CCCTTTACACCTCAGT (sugars k3 d10 k3, PS) belongs 25%; to CACCTTCGGTTTAATC (sugars k3 d10 k3, PS), 20%. To GGAATGGCCAGCCTAT (sugars k3 d10 k3, PS) belongs 17%; to TTAAATTACACCAGTC (sugars k3 d10 k3, PS), 50% and 65%. Take CCACACACTACCATAT (sugars k3 d10 k3, PS): the target mRNA inhibition came out at 17%. For AAGTAGTTCTTCGGTT (sugars k3 d10 k3, PS), the target mRNA inhibition was determined as 10%. With TCTGACTTTGTATGTA (sugars k3 d10 k3, PS) the figure was 48%; with AGAGAACCACACACTA (sugars k3 d10 k3, PS), 28%; with CCAGCATTACAGTTCT (sugars k3 d10 k3, PS), 42%.

For AAGGATGTATATAGTT (sugars k3 d10 k3, PS), the target mRNA inhibition was determined as 21%. With TGGAAGCTCCTTCTAT (sugars k3 d10 k3, PS) the figure was -19%; with “TGCCTTTAGGATTCTAGACA (sugars e5 d10 e5, PS)”, 39% and 51%; with TCAAGGATGTATATAG (sugars k3 d10 k3, PS), 6%. Regarding CCAAAGACCTCGACAC (sugars k3 d10 k3, PS), the target mRNA inhibition stood at 13%. With AATCGGAGCAGCACGG (sugars k3 d10 k3, PS), the target mRNA inhibition was 26%.

As to AACTTATCTGCGGTTT (sugars k3 d10 k3, PS), the target mRNA inhibition was 6%. With TGGCATATGCAGATAA (sugars k3 d10 k3, PS) the figure was 69% and 89%. Regarding CCACGAACTGCTGCTT (sugars k3 d10 k3, PS), the target mRNA inhibition is 54%. To CCAATGGACATCTCTT (sugars k3 d10 k3, PS) belongs 40%; to CATTAAAGAGTGTTCG (sugars k3 d10 k3, PS), 34%.

CCCCGGAACTTTTAAA (sugars k3 d10 k3, PS): the target mRNA inhibition came out at 23%. For the sequence CCACTGGTGAATTCAA (sugars k3 d10 k3, PS), the target mRNA inhibition was 55%.

For the sequence GACAGCTAAGATAGCA (sugars k3 d10 k3, PS), the target mRNA inhibition turned out to be 12%.

Turning to GATTTTAAGGTTGCAT (sugars k3 d10 k3, PS), the target mRNA inhibition was 55% and 38%. As to CGCACTGGCTCCTGGA (sugars k3 d10 k3, PS), the target mRNA inhibition amounted to 49%. For the sequence TCAAACTAAGCTACTA (sugars k3 d10 k3, PS), the target mRNA inhibition was -1%. With TTATGGAACTTGAATG (sugars k3 d10 k3, PS) the figure was 7%; with GCCGCAGGGATTTGAA (sugars k3 d10 k3, PS), 31%; with GGCAAACGAAACATTG (sugars k3 d10 k3, PS), 35%. With CACCTTGAGTCATTTG (sugars k3 d10 k3, PS) the figure was 37%; with ACACTGGTTCCTGGAA (sugars k3 d10 k3, PS), 48%; with AACATAGTTCAACCCA (sugars k3 d10 k3, PS), 12%. To ACTTAAATTACTAGCG (sugars k3 d10 k3, PS) belongs -10%. Consider TCCTTATTTAGAGGGC (sugars k3 d10 k3, PS), for which the target mRNA inhibition amounted to 29%. With CCAAGACAGCCACACG (sugars k3 d10 k3, PS), the target mRNA inhibition was found to be 10%.

For the sequence CTGACTTTGTATGTAA (sugars k3 d10 k3, PS), the target mRNA inhibition was found to be 51%. With AATTCACCAAGGAGCT (sugars k3 d10 k3, PS), the target mRNA inhibition was 35%.

For TGCGGTTTCCTCAAGC (sugars k3 d10 k3, PS), the target mRNA inhibition was determined as 26%. With GCCCAGTAGGCCAGAC (sugars k3 d10 k3, PS), the target mRNA inhibition came to 25%. With AGAGATACCTGTCTGA (sugars k3 d10 k3, PS) the figure was 22%; with ACCTTGAAACCGATTA (sugars k3 d10 k3, PS), 45%; with ATCTTCACCACGAACT (sugars k3 d10 k3, PS), 22%. To TGGACATTGCCTCTTC (sugars k3 d10 k3, PS) belongs 29%; to AACCTGGGCTCCCGGA (sugars k3 d10 k3, PS), 30%.

Consider CGAAGACACAGAGACC (sugars k3 d10 k3, PS), for which the target mRNA inhibition is 10%.

AAACTAAATCATTGGG (sugars k3 d10 k3, PS): the target mRNA inhibition was 43%. With CACCACGAACTGCTGC (sugars k3 d10 k3, PS) the figure was 19%; with ACTCCCCCCCGCCTCA (sugars k3 d10 k3, PS), 26%. For the sequence ATGCCTACCGCACAGC (sugars k3 d10 k3, PS), the target mRNA inhibition was -8%. To TGTAAAACATTGCCTA (sugars k3 d10 k3, PS) belongs -7%. For the sequence TGAATTACTTCCGTTA (sugars k3 d10 k3, PS), the target mRNA inhibition was determined as 36%. To GGCAAAATGGCGGACT (sugars k3 d10 k3, PS) belongs -14%; to AGTTTTCAGCAGTAGG (sugars k3 d10 k3, PS), -21%. On to AGACTGTTGCTTGTTT (sugars k3 d10 k3, PS), for which the target mRNA inhibition was determined as 1%.

With CTAACATAGTTCAACC (sugars k3 d10 k3, PS), the target mRNA inhibition stood at 16%. As for CCTGAAGTCAAGACAA (sugars k3 d10 k3, PS), the target mRNA inhibition was 0%.

Turning to AGGCAAGTCCTCATTA (sugars k3 d10 k3, PS), the target mRNA inhibition turned out to be 16%.

With GCATCAAGGCACTGAT (sugars k3 d10 k3, PS), the target mRNA inhibition was 35%. To AAGGCTTCAGTCCCCT (sugars k3 d10 k3, PS) belongs 14%; to CTCCCCCAACTGCTTG (sugars k3 d10 k3, PS), 22%; to CTATATTTAAGGCCTT (sugars k3 d10 k3, PS), 26%. Turning to AAAGACCTCGACACCA (sugars k3 d10 k3, PS), the target mRNA inhibition is 15%.

Consider GCTGAAATCTATTCAA (sugars k3 d10 k3, PS), for which the target mRNA inhibition is -159%. To ACCGCACAGCTCGGGC (sugars k3 d10 k3, PS) belongs 5%.

With GGATCATTAAGCCACT (sugars k3 d10 k3, PS), the target mRNA inhibition was 15%.

For TTAATCACCTTCGGTT (sugars k3 d10 k3, PS), the target mRNA inhibition amounted to 27%. As to CAAACTTGCCATCTAC (sugars k3 d10 k3, PS), the target mRNA inhibition stood at 11%. Consider TGACGCAATTCTCCCT (sugars k3 d10 k3, PS), for which the target mRNA inhibition was found to be 33%. Take ATTGGAGATCAGCTTC (sugars k3 d10 k3, PS): the target mRNA inhibition worked out at 52%. For CTCCATGGTTGTCCTA (sugars k3 d10 k3, PS), the target mRNA inhibition is 39%. With TCATCCTACCACTCCC (sugars k3 d10 k3, PS) the figure was 34%. With GCTTTGTTGTCTCTCC (sugars k3 d10 k3, PS) the figure was 93% and 97%.
